These results are taken from paper PMC5301048, “Selection and early clinical evaluation of the brain‐penetrant 11β‐hydroxysteroid dehydrogenase type 1 (11β‐HSD1) inhibitor UE2343 (Xanamem™)” (British Journal of Pharmacology, 2017).

Where two headings read alike, the source gives them in different places.

For one data set, the system named is 11β‐HSD1 in the liver. Put plainly: Single ascending dose study, urinary THFs/THE ratio. It counts as in vivo. Particulars: human. The method, then: A double‐blind, randomized, placebo‐controlled single ascending dose study was carried out at Simbec Research Ltd, Merthyr Tydfil, UK. Each cohort consisted of six healthy male subjects and two females of non‐child bearing potential. Two male ‘dose leader’ subjects (1 active : 1 placebo) were dosed first in each cohort. The remainder of the cohort (5 active : 1 placebo) were dosed 24 h later. Dose cohorts were 2, 5, 10, 18, 25 and 35 mg. Safety, pharmacokinetic and pharmacodynamic assessments were made at pre‐determined time‐points during each part of the study. Dose escalation was dependent upon satisfactory review of the blinded safety (up to Day 6) and pharmacokinetic (up to 24 h post‐dose) data from the preceding cohort.
Laboratory evaluation of clinical safety parameters was carried out using standard validated methods. Measurement of plasma pharmacodynamic markers [adrenocorticotropic hormone (ACTH), cortisol, 4‐androstenedione, testosterone and dehydroepiandrosterone sulphate (DHEA‐s)] was carried out using commercially available kits. Each method was fully validated prior to analysis. Urinary steroid metabolites were measured according to established methods (Boonen et al., 2013). UE2343 levels in plasma, urine and CSF was determined by LC–MS/MS using fully validated methods.
The data and statistical analysis comply with the recommendations on experimental design and analysis in pharmacology (Curtis et al., 2015). Levels of probability, P < 0.05 were deemed to constitute the threshold for statistical significance. Pharmacokinetic parameters, except Tmax (time of maximum observed drug concentration), are given as mean ± coefficient of variation (CV%). Tmax is given as median ± range. For each of the pharmacodynamic parameters [ACTH, cortisol, adrenal androgens, tetrahydrocortisols (THFs)/tetrahydrocortisone (THE) ratio], the maximum % change from baseline for each subject was subjected to ANOVA. For selected data, an additional covariate factor for the baseline was also included in the ANOVA/analysis of covariance (ANCOVA) model. Associated P‐values <0.05 for each comparison have been presented.
11β‐HSD1 is predominantly located in the liver and adipose tissue. Cortisol (F) and cortisone (E) are cleared from the liver via the enzymes 5α‐reductase and 3α‐HSD to generate tetrahydro (TH) metabolites that are eliminated in the urine. Measurement of urinary TH metabolite ratios thus provides a surrogate measure of 11β‐HSD1 inhibition in the liver (Best and Walker, 1997). Following a single dose of UE2343, there was a statistically significant reduction in the urinary THFs/THE ratio between 0 and 4 h at doses of 18, 25 and 35 mg, equating to a reduction of 58, 55 and 50% respectively (Figure 4A).

Data set [1] can be described thus: Tissue exposure measurements in rats (plasma and brain). It counts as in vivo. Particulars: rat. The method, then:
The circulating plasma levels and tissue distribution of compounds were determined according to the method described in WO2011135276 (Webster et al., 2011a). Animals were group‐housed, had free access to food and water and were maintained in accordance with UK Home Office regulations. The animal work was conducted under UK Home Office Project Licence no. PPL 60/3915.
Compounds were prepared in 0.9% saline containing 2% DMSO (v^.v^‐1) and 38% PEG400 (v^.v^‐1) and administered to male Sprague Dawley rats by oral gavage such that the final concentration of compound was 10 mg·kg^−1. Rats (n = 3 per time point) were killed by decapitation at 1, 4 and 6 h post dosing, and trunk blood and tissues (liver, adipose and brain) were excised. Blood samples at 0.5 and 2 h post dosing were taken by a tail nick from the 4 and 6 h rats respectively.
Compounds were triple extracted from plasma (prepared from blood by a high speed centrifugation step) and spiked with 1 μg of a standard compound using ethyl acetate. Extracts were dried under nitrogen and re‐suspended in 60% methanol/40% ammonium acetate (5 mM).
A known weight of tissue was homogenized in 3 volumes of Krebs buffer. The compound was triple extracted with ethyl acetate from the supernatant of a low speed spin spiked with […] of a standard compound. Extracts were dried under nitrogen and re‐suspended in 60% methanol/40% ammonium acetate (5 mM).
Samples from plasma and tissue were analysed by TSQ Quantum Discovery Tandem Mass Spectrometer and Surveyor Liquid Chromatogram (Thermo, Hemel‐Hempstead, UK). Then 10 μL of each sample was injected in a mobile phase consisting of 60% methanol/40% ammonium acetate (5 mM) at a flow rate of 0.5 mL·min^−1. The column used was a BDS hypersil C18, 50 × 2.1 mm with a 5 μm particle size.
Each compound was tuned with a spray voltage of 3000 V and a capillary temperature of 300°C, and values for tube lens, CID and product ions were determined. The peak area for each compound and for the internal standard was determined, and the concentration of compound ^. g^‐1 of tissue or mL^‐1 of plasma was calculated by comparison of the peak area ratio to a standard curve.

The term Cmax denotes the maximum level reached in the sampled fluid or tissue. In the case of `O=C(c1csc(-c2cn[nH]c2)c1)N1C2CCC1CC(O)(c1ncccn1)C2` (stereo not drawn) [compound 4], the “reduction in the urinary THFs/THE ratio” value is 79% in the data set on 11β‐HSD1 in the liver (single dose 10 mg, 4–8 h); 58% in the data set on 11β‐HSD1 in the liver (single dose 18 mg, 0–4 h); 86% in the data set with 11β‐HSD1 in the liver (single dose 18 mg, 4–8 h); 55% with 11β‐HSD1 in the liver (single dose 25 mg, 0–4 h); 83% in the data set with 11β‐HSD1 in the liver (single dose 25 mg, 4–8 h); 50% in the data set on 11β‐HSD1 in the liver (single dose 35 mg, 0–4 h). Moreover, the “reduction in the urinary THFs/THE ratio” value with 11β‐HSD1 in the liver (single dose 35 mg, 4–8 h) is reported as 83%. The Kp is 0.43 in data set [1] (male, Sprague Dawley, brain (relative to free plasma), oral, 10 mg·kg^−1, rat plasma protein binding taken into account, read-out: brain : plasma free ratio); 0.11 in data set [1] (male, Sprague Dawley, brain and plasma, 10 mg·kg^−1 oral gavage, read-out: Brain : plasma ratio). Also, the Cmax in data set [1] (male, Sprague Dawley, plasma, po, 10 mg/kg, 10 mg·kg^−1 oral gavage, mean ± SD) was 1540 ± 657 ng/mL. Moreover, the “level in brain as % of the free plasma concentration” value in data set [1] came to 43%. The “Brain Cmax” value in data set [1] (10 mg·kg^−1 oral gavage, mean ± SD) amounted to 173 ± 80 ng/mL.
